Laboratory results reported in EP0338756B1, “Use of 1,2,4-trioxanes as antiparasitics and anthelmintics” (OXACO S.A., priority 1988, dated 1989).

Columns and labels:
Onchocerca gutturosa [1] = assay: Tetrazolium colorimetric test (formazan formation), using parasites, medium, cells and test drug; conditions: 5x10⁻⁵ M printed for the test Compounds
Procedure: A suitable colorimetric assay uses formation of formazan, a blue dye, from tetrazolium cation generated by 3-[…] bromide (J Helminth (1987) 60, 271). Firstly, Compounds 1, 2, 3, 4, 5, 7, 8, 9, 11 and 12, along with artemisinin and arteether were tested using parasites, medium, cells and test drug.

Onchocerca gutturosa [2] = assay: Onchocerca gutturosa motility, using parasites, medium, serum, cells and test drugs; conditions: with serum and cells
Procedure: (§1) Testing in vitro against Onchocerca gutturosa is a valid model for activity against Onchocerca volvulus. Testing of test drugs (Compounds 1, 2, 3, 4, 5, 7, 8, 9, 11, and 12 of Table 1) against the parasitic worms Onchocerca gutturosa was carried out in accordance with the method described in J Helminth (1987) 60, 271, firstly using parasites, medium, serum, cells and test drugs.

Onchocerca gutturosa [3] = assay: Onchocerca gutturosa motility, using parasites, medium and drug; conditions: medium and drug only, time not given
Procedure: as §1, with “drugs. Secondly, test drugs (Compounds 2, 3, 4, 7, 8, 9 and 12 of Table 1) were tested using parasites, medium and drug. […] However, between 4 and 7 days, all the tested Compounds had completely immobilized the worms. Under these conditions, commercial anti-helminthic drugs and artemisinin also cut motility by some 30-40%.” for “drugs.”

In the case of `CC1(C)OO[C@]2(c3ccccc3)CCC(c3ccccc3)=C[C@@H]2O1` (relative stereo) [Compound 12], the “inhibition of formazan formation” value (Onchocerca gutturosa [1]) is reported as “more than 90%”, the reduced motility (Onchocerca gutturosa [2]; after 7 days) is reported as 100% and the effect on motility (Onchocerca gutturosa [2]; two to three days exposure) is reported as “markedly inhibitory”.
Compound `CCO[C@H]1O[C@@H]2O[C@@]3(C)CC[C@H]4[C@H](C)CC[C@@H]([C@H]1C)[C@@]24OO3` [arteether] has a reduced motility (Onchocerca gutturosa [2]; after a day) of 30%.
In the case of `C[C@@H]1CC[C@H]2[C@@H](C)C(=O)O[C@@H]3O[C@@]4(C)CC[C@@H]1[C@]32OO4` [artemisinin, Artemisinin], the effect on motility (Onchocerca gutturosa [2]; a day's exposure) is reported as “ineffective” and the cut motility (Onchocerca gutturosa [3]) is reported as 30-40%.
